Tests used:
Conditions in all cases: exposure: 5-72 hpf
[1] = system: Danio rerio embryo (fli1:egfp); assay: heart rate at 72 hpf (beats per minute); higher = faster heart rate
Procedure: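 fli1:egfp zebrafish embryos exposed 5-72 hpf to chemical (0.05-50 µM, 0.1% DMSO) in 384-well plates; heart rate at 72 hpf quantified from stream acquisitions by semi-automated MetaXpress journal (peak counting); only embryos in concentrations passing survival/body-length criteria analyzed.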

[2] = system: Danio rerio embryo (fli1:egfp); assay: arterial (dorsal aorta) circulation score at 72 hpf (normalized DA-Max (arbitrary units)); higher = more circulation
Procedure: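 fli1:egfp zebrafish embryos exposed 5-72 hpf to chemical (0.05-50 µM, 0.1% DMSO); arterial circulation at 72 hpf quantified from stream acquisitions of the dorsal aorta by FFT-based analysis (DA-Max, normalized dorsal aorta signal); only concentrations passing survival/body-length criteria analyzed.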

[3] = system: Danio rerio embryo (fli1:egfp); assay: intersegmental vessel area normalized to body length at 72 hpf (ISV area / body length (normalized units)); higher = more vessel area
Procedure: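 fli1:egfp zebrafish embryos exposed 5-72 hpf to chemical (0.05-50 µM, 0.1% DMSO); intersegmental vessel (ISV) eGFP area quantified by MetaXpress journal at 72 hpf and normalized to body length.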

[4] = system: Danio rerio embryo (fli1:egfp); assay: body length at 72 hpf (µm); higher = longer body (less growth inhibition)
Procedure: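 Transgenic fli1:egfp zebrafish embryos (one per well, 384-well plate) exposed statically from 5 to 72 hpf at 28 °C to chemical (0.05-50 µM, 0.1% DMSO); at 72 hpf anesthetized and imaged on ImageXpress; body length of live, hatched, correctly oriented embryos measured by automated MetaXpress journal. Dead/unhatched/misoriented embryos have no value.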

[5] = system: Danio rerio embryo (fli1:egfp); assay: pericardial area at 72 hpf (image area units (not stated)); higher = larger pericardial area (edema)
Procedure: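 fli1:egfp zebrafish embryos exposed 5-72 hpf to chemical (0.05-50 µM, 0.1% DMSO); pericardial area at 72 hpf measured by semi-automated MetaXpress journal (increase indicates edema).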

C[C@@]1(c2ccc(Oc3ccccc3)cc2)OC(=O)N(Nc2ccccc2)C1=O (racemic) [Famoxadone]
Conditions | arterial, [2] | body length at 72 hpf, [4] | heart rate at 72 hpf, [1] | intersegmental vessel area normalized, [3] | pericardial area at 72 hpf, [5]
0.05 µM | 15.7 | 2980 | 172 | 72.5 | 13400
0.098 µM | 14.7 | 2990 | 180 | 84.9 | 13700
0.195 µM | 14.5 | 2970 | 188 | 77.8 | 13500
0.39 µM | 12.7 | 2970 | 177 | 75.4 | 12100
0.78 µM | 14.9 | 2940 | 160 | 80 | 15500

O=C(O)c1cc(Oc2ccc(C(F)(F)F)cc2Cl)ccc1[N+](=O)[O-] [Acifluorfen]
Conditions | arterial, [2] | body length at 72 hpf, [4] | heart rate at 72 hpf, [1] | intersegmental vessel area normalized, [3] | pericardial area at 72 hpf, [5]
0.05 µM | 16.3 | 2970 | 168 | 81.7 | 14900
0.098 µM | 14.7 | 3000 | 169 | 82.8 | 17600
0.195 µM | 14.4 | 3030 | 166 | 89.2 | 16700
0.39 µM | 15.6 | 3000 | 168 | 82.3 | 16700
0.78 µM | 14.4 | 2970 | 167 | 92.9 | 15600
1.56 µM | 15.9 | 3040 | 164 | 82.3 | 16400
3.125 µM | 15.2 | 3030 | 164 | 85.2 | 17500
6.25 µM | 14.2 | 3030 | 177 | 89.2 | 19400
12.5 µM | 16.1 | 3020 | 175 | 89.5 | 15900
25 µM | 15.6 | 2960 | 175 | 89.3 | 15500
50 µM | 14.5 | 2980 | 180 | 99.8 | 15800

C=CCOC(=O)C(C)(C)OC(=O)c1cc(-n2c(=O)cc(C(F)(F)F)n(C)c2=O)ccc1Cl [Butafenacil]
Conditions | arterial, [2] | body length at 72 hpf, [4] | heart rate at 72 hpf, [1] | intersegmental vessel area normalized, [3] | pericardial area at 72 hpf, [5]
0.05 µM | 11.5 | 2960 | 182 | 72.8 | 15900
0.098 µM | 11.8 | 2990 | 180 | 61.6 | 14800
0.195 µM | 10.1 | 2960 | 191 | 70.6 | 16200
0.39 µM | 7.84 | 3000 | 185 | 68.9 | 15700
0.78 µM | 5.12 | 2970 | 172 | 55.9 | 18900
1.56 µM | 5.32 | 2970 | 168 | 61.2 | 18800
3.125 µM | 5.76 | 2980 | 175 | 69.3 | 18700
6.25 µM | 4.56 | 3010 | 184 | 72.8 | 28100
12.5 µM | 3.81 | 2860 | 163 | 81.2 | 36500

CCOC(=O)C(Cl)Cc1cc(-n2nc(C)n(C(F)F)c2=O)c(F)cc1Cl (stereo unspecified) [Carfentrazone-ethyl]
Conditions | arterial, [2] | body length at 72 hpf, [4] | heart rate at 72 hpf, [1] | intersegmental vessel area normalized, [3] | pericardial area at 72 hpf, [5]
0.05 µM | 13.5 | 2950 | 186 | 53.3 | 13800
0.098 µM | 13.1 | 2970 | 172 | 55.6 | 15600
0.195 µM | 14.4 | 2980 | 187 | 64.4 | 15200
0.39 µM | 12.6 | 2990 | 190 | 61.5 | 17900
0.78 µM | 12.8 | 3030 | 194 | 65.4 | 17700
1.56 µM | 11.6 | 2950 | 186 | 56.7 | 18200
3.125 µM | 8.55 | 2940 | 190 | 64.7 | 19600
6.25 µM | 8.33 | 2970 | 184 | 67.9 | 25600

N#Cc1c(Cl)c(Cl)c(Cl)c(C#N)c1Cl [Chlorothalonil]
Conditions | arterial, [2] | body length at 72 hpf, [4] | heart rate at 72 hpf, [1] | intersegmental vessel area normalized, [3] | pericardial area at 72 hpf, [5]
0.05 µM | 11.6 | 2960 | 138 | 70.8 | 17600
0.098 µM | 10.8 | 2990 | 140 | 78.4 | 24100
0.195 µM | 10.3 | 2940 | 154 | 75.7 | 23900
0.39 µM | 12.3 | 2880 | 153 | 80.7 | 22000

C#CCOC(=O)[C@@H](C)Oc1ccc(Oc2ncc(Cl)cc2F)cc1 [Clodinafop-propargyl]
Conditions | arterial, [2] | body length at 72 hpf, [4] | heart rate at 72 hpf, [1] | intersegmental vessel area normalized, [3] | pericardial area at 72 hpf, [5]
0.0244 µM | 11.8 | 3010 | 177 | 65.9 | 14100
0.05 µM | 14.5 | 2990 | 168 | 84.8 | 13100
0.098 µM | 12.3 | 2960 | 173 | 79 | 12900
0.195 µM | 16.7 | 3060 | 183 | 76.8 | 13800
0.39 µM | 14.4 | 3000 | 188 | 87.1 | 15200
0.78 µM | 14.4 | 3000 | 185 | 73.6 | 15400
1.56 µM | 12 | 3030 | 190 | 84 | 13500
3.125 µM | 14.8 | 3030 | 191 | 82.7 | 12900
6.25 µM | 12.5 | 2930 | 193 | 82.8 | 12900
12.5 µM | 13.6 | 2940 | 196 | 89.6 | 13000

CC1(C)C(C=C(Cl)Cl)C1C(=O)OC(C#N)c1ccc(F)c(Oc2ccccc2)c1 (stereo unspecified) [Cyfluthrin]
Conditions | arterial, [2] | body length at 72 hpf, [4] | heart rate at 72 hpf, [1] | intersegmental vessel area normalized, [3] | pericardial area at 72 hpf, [5]
0.05 µM | 14.9 | 3010 | 185 | 80.1 | 16100
0.098 µM | 14.7 | 3040 | 187 | 71.9 | 14000
0.195 µM | 16.3 | 3030 | 188 | 80.3 | 12900
0.39 µM | 12.4 | 3070 | 193 | 83.3 | 13300
0.78 µM | 9.66 | 3020 | 202 | 71.9 | 14900
1.56 µM | 13 | 2900 | 198 | 78.4 | 16800
3.125 µM | 14.7 | 2790 | 190 | 92.3 | 16900
6.25 µM | – | 2620 | – | – | –

CN1CSC(=S)N(C)C1 [Dazomet]
0.05 µM
Conditions | arterial | body length at 72 hpf | heart rate at 72 hpf | intersegmental vessel area normalized | pericardial area at 72 hpf
[1] | – | – | 168 | – | –
[2] | 14.4 | – | – | – | –
[3] | – | – | – | 72.7 | –
[4] | – | 2860 | – | – | –
[5] | – | – | – | – | 15600

CC(C)[C@H](C(=O)O[C@H](C#N)c1cccc(Oc2ccccc2)c1)c1ccc(Cl)cc1 [Esfenvalerate]
Conditions | arterial, [2] | body length at 72 hpf, [4] | heart rate at 72 hpf, [1] | intersegmental vessel area normalized, [3] | pericardial area at 72 hpf, [5]
0.05 µM | 9.88 | 3070 | 184 | 72.5 | 14800
0.098 µM | 10.8 | 3140 | 182 | 76.8 | 16600
0.195 µM | 10.1 | 3150 | 196 | 76.2 | 14700
0.39 µM | 10.9 | 3090 | 198 | 76.1 | 15300
0.78 µM | 10.1 | 3140 | 195 | 75.7 | 15800
1.56 µM | 10.3 | 3160 | 194 | 63.9 | 15900
3.125 µM | 13.2 | 2970 | 188 | 88.9 | 14100
6.25 µM | 11.9 | 2830 | 188 | 88.2 | 14600
12.5 µM | – | 2760 | – | – | –
25 µM | – | 2640 | – | – | –
50 µM | – | 2750 | – | – | –

CC1(C)C(C(=O)OC(C#N)c2cccc(Oc3ccccc3)c2)C1(C)C (stereo unspecified) [Fenpropathrin]
Conditions | arterial, [2] | body length at 72 hpf, [4] | heart rate at 72 hpf, [1] | intersegmental vessel area normalized, [3] | pericardial area at 72 hpf, [5]
0.05 µM | 18.5 | 2970 | 183 | 83.1 | 14600
0.098 µM | 13.8 | 2950 | 197 | 80.8 | 13400
0.195 µM | 11.2 | 2970 | 191 | 73.2 | 14500
0.39 µM | 10.7 | 2940 | 192 | 83.8 | 14400
0.78 µM | 12.6 | 2780 | 192 | 85.4 | 13200
1.56 µM | 20.9 | 2720 | 188 | 90.6 | 13400
3.125 µM | 21.2 | 2710 | 186 | 82.2 | 13600
6.25 µM | – | 2640 | – | – | –
12.5 µM | – | 2590 | – | – | –

CCOC(=O)COc1cc(-n2ncc(C(F)(F)F)c(C)c2=O)c(F)cc1Cl [Flufenpyr-ethyl]
Conditions | arterial, [2] | body length at 72 hpf, [4] | heart rate at 72 hpf, [1] | intersegmental vessel area normalized, [3] | pericardial area at 72 hpf, [5]
0.05 µM | 8.79 | 2990 | 169 | 84.4 | 12800
0.098 µM | 9.74 | 3000 | 178 | 70.8 | 13000
0.195 µM | 9.58 | 3040 | 181 | 75.2 | 12300
0.39 µM | 8.94 | 3080 | 180 | 77.1 | 13600
0.78 µM | 9.32 | 3020 | 186 | 74.8 | 13300
1.56 µM | 8.81 | 3020 | 182 | 75.8 | 13600
3.125 µM | 6.7 | 2950 | 181 | 82.9 | 15300
6.25 µM | 5.21 | 2810 | 166 | 83.5 | 25900
